Measurements reported in publication PMC9134315, “Systemic Administration of a Brain Permeable Cdk5 Inhibitor Alters Neurobehavior” (Frontiers in Pharmacology, 2022).

Tests used:
C57BL/6 mice = assay: Open-field test; assay type: in vivo, mouse; conditions: 50 mg/kg
Method: The OFT was performed as described ([Chakraborti et al., 2021]). With the adaptation duration of the test being 1 h for each mouse, briefly, the mice were placed in a square box (40 cm × 40 cm) and allowed to freely explore. The center square portion of the maze was defined as the “open area.” Video tracking using EthoVision 16 software was used to track animal movement throughout the box and stereotypic and locomotive behaviors such as hopping, sniffing, and rearing. Total distance traveled, entries into the center of the maze, and duration in the center were tracked and analyzed in EthoVision.
To establish a functional effect of pharmacological Cdk5 inhibition in the brain, we tested mouse performance in two behavioral paradigms previously shown to be altered in Cdk5 knockout mice: the open-field maze and the tail suspension test ([Plattner et al., 2015]). The open-field maze was used to measure locomotion and anxiety-like behavior ([Cacace et al., 2011]; [Seibenhener and Wooten, 2015]). Mice were injected with either vehicle or 50 mg/kg of 25–106 and allowed to freely explore an open-field maze for 1 h with locomotor activity being tracked (Figure 7).

Cdk5 [1] = molecular target: T1, Cdk5 (Mus musculus, UniProt P49615); assay: Ex vivo acute striatal brain slice pharmacology, immunoblot of phospho-Thr75 DARPP-32 and phospho-Ser1116 NR2B; assay type: cell-based; conditions: acute striatal slices, 1 h treatment, 0-10 µM; read-out: IC50, Cdk5-dependent phosphorylation of DARPP-32 and NR2B
T1 construct: from tissue; host or cells: striatum of wild-type C57BL/6 mice (acute slices, or lysates after I.V. dosing)
Method: Brain slice pharmacology was performed as described ([Nishi et al., 2000]). Briefly, the mice were decapitated, and the brains were rapidly dissected and submerged in ice-cold normal Kreb’s solution (124 mM NaCl, 4 mM KCl, 26 mM NaHCO3, 1.25 mM KH2PO4, 1.5 mM MgSO4, 10 mM D-glucose, and 1.5 mM CaCl2). The brains were subsequently sectioned into normal Kreb’s solution at 350 µ thickness. The brain slices were transferred to a 30°C solution of normal Kreb’s containing 10 µM deaminase for a 1-h recovery period. The sections were then incubated in normal Kreb’s solution with and without the indicated compounds across the dose and time ranges indicated. The sections were rapidly snap-frozen in dry ice to terminate treatment regimes.
(§1) Immunoblotting was performed as previously described ([Umfress et al., 2021]). Mouse brains were rapidly dissected in an ice-cold solution of 50 mM NaF/PBS. The regions of interest were further dissected out and rapidly snap-frozen in dry ice. The frozen tissue was homogenized in boiling lysis buffer (1% SDS, 50 mM NaF) and sonicated with several three to four pulses at 40 dB. The samples were subsequently denatured at 90°C for 5 min. Protein concentration was determined by the BCA assay, and homogenates were diluted in 4x sample buffer, separated by SDS-PAGE, and transferred to 0.45-µm nitrocellulose membranes, blocked with 5% milk solution (1 h), and probed with primary antibodies (overnight). The following antibodies were used in the study: phospho-Ser549 synapsin I (Phosphosolutions), total synapsin I (Phosphosolutions), actin (Invitrogen), phospho-Ser1116 (in-house) ([Plattner et al., 2014]), and total NR2B (Phosphosolutions), phospho-Thr75, and total DARPP-32 (Cell Signaling Technology). Visualization was performed using the Licor CLX membrane scanner and Licor secondary antibodies.
In order to assess the functional inhibition of Cdk5 in intact brain tissue by the four compounds summarized in Figure 1, acutely prepared striatal slices were treated in a dose-dependent manner (0, 0.25, 0.5, 1, 5, and 10 µM) with each inhibitor for 1 h, and Cdk5 activity was assessed via immunoblotting the phosphorylation of established Cdk5 sites, phospho-Thr75 DARPP-32 and phospho-Ser1116 NR2B ([Bibb et al., 1999]; [Plattner et al., 2014]).

Cdk2/CyclinE = Cdk2/CyclinE (Homo sapiens, UniProt P24941); assay: In vitro dose-response kinase inhibition assay; assay type: biochemical
Method: (§2) In vitro phosphorylation reactions were conducted as dose-response kinase inhibition assays with three highly homologous CDKs, namely, Cdk2/CyclinE (1.5 nM), CDK5/p25 (0.35 nM), and Cdk9/CyclinT1 (9 nM). Briefly, the abovementioned kinases were incubated with ATP (30 μM), the corresponding substrate (20 μM), and an increasing concentration of 25–106 (0–5 μM) for 30 min.

Cdk9/CyclinT1 = Cdk9/CyclinT1 (Homo sapiens, UniProt P50750); assay: In vitro dose-response kinase inhibition assay; assay type: biochemical; conditions: 30 min, ATP 30 μM
Method: as §2

CDK5/p25 = CDK5/p25 (Homo sapiens, UniProt Q00535); assay: In vitro dose-response kinase inhibition assay; assay type: biochemical
Method: as §2

Cdk5 [2] = molecular target: T1, Cdk5; assay: In vivo Cdk5 inhibition after I.V. injection, immunoblot of striatal phospho-Ser549 synapsin I; conditions: for phospho-Ser549 synapsin I levels in the striatum: 50 mg/kg I.V.
Method: The wild-type group housed male C57BL/6 mice 10–12 weeks of age were used for all in vivo, ex vivo, and behavioral studies. This age range was selected to be consistent with previous studies of conditional Cdk5 knockout mice ([Plattner et al., 2015]). 25–106 was administered in a 20-fold dose range intravenously (I.V.) at 10, 50, 100, and 200 mg/kg for pharmacokinetic studies. This delivery mode was used as I.V. injections to avoid first-pass drug metabolism observed using other injection methods ([Pond and Tozer, 1984]). […] All animal experiments were performed under approved protocols by the University of Alabama at Birmingham (UAB) Institutional Animal Care and Use Committees and in accordance with the guidelines of the Animal Welfare Act and the Guide for the Care and Use of Laboratory Animals.
as §1
Each of the four compounds tested in brain slices was further screened for their ability to penetrate the blood–brain barrier (BBB) and inhibit Cdk5-dependent activity in vivo. For these studies, cohorts of mice were treated with each compound via I.V. injection (50 mg/kg), and brain striatal lysates from various time points were subjected to quantitative immunoblot analysis for phosho-Ser549 Synapsin I levels. Three compounds, 20–107, 20–132, and 20–143, had no effect on Cdk5 activity compared to that of vehicle alone (data not shown). […] Moreover, this effect persisted even 24 h after dosing.

T1 sequence (P49615 whole entry): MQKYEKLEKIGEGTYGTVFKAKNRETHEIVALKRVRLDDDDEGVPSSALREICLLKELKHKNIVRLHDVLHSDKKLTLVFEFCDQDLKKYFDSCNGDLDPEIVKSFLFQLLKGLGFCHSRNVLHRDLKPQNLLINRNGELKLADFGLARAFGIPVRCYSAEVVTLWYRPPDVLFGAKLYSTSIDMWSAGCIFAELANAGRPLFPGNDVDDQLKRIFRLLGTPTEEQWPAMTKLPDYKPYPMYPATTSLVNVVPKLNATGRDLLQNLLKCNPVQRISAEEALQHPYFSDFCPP
T1 sequence (P61809 2-307 partner limits assumed): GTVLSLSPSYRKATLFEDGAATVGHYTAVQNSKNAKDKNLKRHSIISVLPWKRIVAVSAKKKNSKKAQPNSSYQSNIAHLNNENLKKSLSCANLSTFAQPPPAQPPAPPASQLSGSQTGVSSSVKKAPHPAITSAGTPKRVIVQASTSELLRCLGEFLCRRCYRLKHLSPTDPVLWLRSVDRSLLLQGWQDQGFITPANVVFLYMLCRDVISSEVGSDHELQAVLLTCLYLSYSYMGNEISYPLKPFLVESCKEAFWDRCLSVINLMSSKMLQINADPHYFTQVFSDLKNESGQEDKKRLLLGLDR
CDK5/p25, sequence (Q00535 whole entry, species assumed): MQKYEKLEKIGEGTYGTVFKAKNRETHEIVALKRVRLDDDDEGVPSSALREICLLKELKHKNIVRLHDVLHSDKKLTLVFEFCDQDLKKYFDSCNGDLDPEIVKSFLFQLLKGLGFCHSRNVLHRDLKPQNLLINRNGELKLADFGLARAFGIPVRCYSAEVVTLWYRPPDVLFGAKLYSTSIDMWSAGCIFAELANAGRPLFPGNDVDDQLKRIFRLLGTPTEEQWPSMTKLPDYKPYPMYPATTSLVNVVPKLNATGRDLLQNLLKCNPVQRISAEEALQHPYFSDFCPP
CDK5/p25, sequence (Q15078 99-307 partner limits assumed, species assumed): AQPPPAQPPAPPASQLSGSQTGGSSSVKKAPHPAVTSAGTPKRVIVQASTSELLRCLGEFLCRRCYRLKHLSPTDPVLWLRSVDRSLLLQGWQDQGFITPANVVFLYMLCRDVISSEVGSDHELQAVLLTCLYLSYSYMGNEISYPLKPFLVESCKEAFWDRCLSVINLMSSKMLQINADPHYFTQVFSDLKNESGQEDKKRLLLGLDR
Cdk9/CyclinT1, sequence (P50750 whole entry, species assumed): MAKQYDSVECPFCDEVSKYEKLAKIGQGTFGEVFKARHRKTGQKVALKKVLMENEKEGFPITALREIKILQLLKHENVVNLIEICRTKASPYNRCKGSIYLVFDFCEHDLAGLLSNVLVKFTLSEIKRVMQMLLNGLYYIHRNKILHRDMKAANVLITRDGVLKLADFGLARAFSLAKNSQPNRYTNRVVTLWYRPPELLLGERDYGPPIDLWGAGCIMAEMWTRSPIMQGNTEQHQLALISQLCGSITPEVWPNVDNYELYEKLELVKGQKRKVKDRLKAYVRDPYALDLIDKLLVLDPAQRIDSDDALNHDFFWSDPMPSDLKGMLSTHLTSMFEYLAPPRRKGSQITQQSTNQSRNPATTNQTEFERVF
Cdk9/CyclinT1, sequence (O60563 whole entry partner, species assumed): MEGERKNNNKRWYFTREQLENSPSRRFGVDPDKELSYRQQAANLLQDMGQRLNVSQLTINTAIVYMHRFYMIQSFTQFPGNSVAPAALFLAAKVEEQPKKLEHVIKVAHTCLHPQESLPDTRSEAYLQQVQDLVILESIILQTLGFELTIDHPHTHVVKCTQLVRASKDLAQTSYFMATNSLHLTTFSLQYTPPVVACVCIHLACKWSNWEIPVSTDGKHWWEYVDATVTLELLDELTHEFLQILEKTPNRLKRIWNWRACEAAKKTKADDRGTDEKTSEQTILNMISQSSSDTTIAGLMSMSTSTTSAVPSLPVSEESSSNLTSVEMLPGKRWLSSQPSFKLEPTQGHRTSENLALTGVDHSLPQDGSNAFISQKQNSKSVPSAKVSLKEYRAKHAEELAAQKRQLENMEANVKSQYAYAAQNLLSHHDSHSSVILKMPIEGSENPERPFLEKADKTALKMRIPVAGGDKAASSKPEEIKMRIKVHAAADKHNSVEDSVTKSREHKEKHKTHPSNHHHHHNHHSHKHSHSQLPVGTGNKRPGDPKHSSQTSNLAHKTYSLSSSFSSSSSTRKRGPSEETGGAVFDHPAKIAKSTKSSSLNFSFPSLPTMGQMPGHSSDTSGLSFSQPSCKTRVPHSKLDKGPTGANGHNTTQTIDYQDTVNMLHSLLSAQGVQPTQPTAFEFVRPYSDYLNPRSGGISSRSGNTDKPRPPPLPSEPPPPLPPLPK

IC50 (Cdk5 [1]): 500 to 1000 nM
IC50 (Cdk2/CyclinE; 30 min, ATP 30 μM, read-out: IC50 CDK2/Cyclin E): 149 nM
Ki (Cdk2/CyclinE; 30 min, ATP 30 μM, read-out: Ki CDK2/Cyclin E): 89 nM
selectivity for Cdk2 than Cdk9 (Cdk2/CyclinE; in vitro kinase assay): greater than 30 fold
IC50 (Cdk9/CyclinT1; read-out: IC50 CDK9/Cyclin T1): 5710 nM
Ki (Cdk9/CyclinT1; read-out: Ki CDK9/Cyclin T1): 3430 nM
IC50 (CDK5/p25; 30 min, ATP 30 μM, read-out: IC50 CDK5/P35): 178 nM
Ki (CDK5/p25; 30 min, ATP 30 μM, read-out: Ki CDK5/P35): 107 nM
selectivity for Cdk5 than Cdk9 (CDK5/p25; in vitro kinase assay): greater than 30 fold
phospho-Ser549 synapsin I levels in the striatum (Cdk5 [2]; 2 h after injection): significantly reduced
phospho-Ser549 synapsin I levels in the striatum (Cdk5 [2]; 24 h after dosing): persisted
Cdk5-dependent phosphorylation in brain (Cdk5 [2]; 1 h post injection): remained unchanged
striatal phospho-Ser549 synapsin I levels, dose-response (Cdk5 [2]; 24 h post injection, 10, 50, 100 and 200 mg/kg I.V., approximately equal efficacy): significant reduction
Compound: COc1cc(CC(=O)Nc2cc(C3CCC3)[nH]n2)cc(OC)c1OC [25–106, N-(5-cyclobutyl-1H-pyrazol-3-yl)-2-(3,4,5-trimethoxyphenyl)acetamide]
duration of time spent in the open portion of the maze vs. vehicle (C57BL/6 mice; 1 h after injection, 1 h test): longer duration of time
entries into the open portion of the maze vs. vehicle (C57BL/6 mice; 1 h after injection, 1 h test): increased number of entries
hopping bouts vs. vehicle (C57BL/6 mice; open-field testing): increased hopping bouts
rearing behaviors vs. vehicle (C57BL/6 mice; open-field testing): increased rearing behaviors
time sniffing vs. vehicle (C57BL/6 mice; open-field testing): increased time sniffing
